Measured values reported in patent publication US20260265207A1, “DPP1 INHIBITORS WITH POLYCYCLIC LINKERS AND USES THEREOF” (Insmed Incorporated, priority 2023, published 2026).

Tests used:
DPP1 [1] = biological target: T1, DPP1 (Homo sapiens, UniProt P53634); assay: Human DPP1 Enzyme IC50 Assay; type: biochemical; design: is first proteolytically processed into its mature form using recombinant human cathepsin L; purchased R&D Systems; conditions: activated recombinant human DPP1, H-Gly-Arg-AMC substrate 400 μM, pH 6.0
Experimental: Human DPP1 Enzyme IC50 Assay
Recombinant human DPP1 enzyme (R&D Systems; Minneapolis, MN) is first proteolytically processed into its mature form using recombinant human cathepsin L (R&D Systems) in a buffer consisting of 20 mM citric acid pH 4.5, 150 mM NaCl, 1 mM EDTA and 10 mM DTT. Test articles are applied to activated human DPP1 enzyme in Assay Buffer (25 mM MES pH 6.0, 50 mM NaCl, 5 mM DTT) in a total reaction volume of 125 μL. 25 μL of compound in Assay Buffer plus 5% DMSO is first added to 50 μL of activated human DPP1 enzyme at a concentration of 1 ng/μL and allowed to pre-incubate for 10 minutes at 37° C. after which 50 μL of 1000 μM H-Gly-Arg-AMC substrate (Bachem; St. Torrance, CA) is added, giving final substrate concentration of 400 μM and a final DMSO concentration of 1%. Substrate cleavage is measured for 90 minutes at 37° C., with fluorescence at Excitation/Emission 350/450 nm measured every 5 minutes. DPP1 concentration is interpolated based on its activity relative to a standard curve of activated human recombinant DPP1 enzyme. IC50 values for each compound are calculated via the XLFit (IDBS Version 5.3.1.3) Add-On to Microsoft Excel using the four parameter fit equation y={A+[(B−A)]/[1+((C/x)^D)]}, which appears as equation number 205 (4 Parameter Logistic Model or Sigmoidal Dose-Response Model) in XLFit. Default constraints are used for each Parameter. IC50 is defined as the compound concentration at which […] of enzyme activity is inhibited when compared to the no-compound control. The IC50 table is included in the table below.
Target sequence in this assay (P53634 25-134 limits assumed): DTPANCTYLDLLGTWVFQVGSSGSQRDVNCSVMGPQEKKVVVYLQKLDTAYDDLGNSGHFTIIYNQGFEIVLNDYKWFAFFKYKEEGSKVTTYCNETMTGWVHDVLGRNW
Target sequence in this assay (P53634 231-394 limits assumed): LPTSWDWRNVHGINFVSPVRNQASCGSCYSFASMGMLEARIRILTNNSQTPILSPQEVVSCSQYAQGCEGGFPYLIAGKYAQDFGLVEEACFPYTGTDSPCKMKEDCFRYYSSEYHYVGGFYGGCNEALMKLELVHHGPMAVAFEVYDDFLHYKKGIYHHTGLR
Target sequence in this assay (P53634 395-463 limits assumed): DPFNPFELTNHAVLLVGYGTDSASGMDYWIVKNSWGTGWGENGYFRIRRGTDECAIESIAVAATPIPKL

DPP1 [2] = biological target: T1, DPP1; assay: Cell Assay (DPP1 IC50 values, Table 2); type: cell-based; conditions: method not described
Target sequence in this assay (P53634 25-463): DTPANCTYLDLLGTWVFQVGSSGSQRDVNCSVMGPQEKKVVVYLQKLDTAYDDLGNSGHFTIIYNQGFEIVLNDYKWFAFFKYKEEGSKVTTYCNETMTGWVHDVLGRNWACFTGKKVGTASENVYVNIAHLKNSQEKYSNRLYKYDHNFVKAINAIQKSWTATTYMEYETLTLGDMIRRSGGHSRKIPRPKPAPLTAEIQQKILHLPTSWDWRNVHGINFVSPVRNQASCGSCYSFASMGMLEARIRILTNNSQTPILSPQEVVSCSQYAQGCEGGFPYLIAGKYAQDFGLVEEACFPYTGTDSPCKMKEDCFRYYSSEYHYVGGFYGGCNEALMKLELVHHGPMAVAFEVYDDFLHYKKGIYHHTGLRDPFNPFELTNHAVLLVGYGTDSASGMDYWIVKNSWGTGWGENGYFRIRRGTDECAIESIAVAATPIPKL

active mouse DPP1 enzyme = biological target: T2, active mouse DPP1 enzyme (Mus musculus, UniProt P97821); assay: Mouse DPP1 Enzyme IC50 Assay; type: biochemical; conditions: active mouse DPP1, H-Gly-Arg-AMC substrate 400 μM, pH 5.5
T2 construct: Test articles are applied to active mouse DPP1 enzyme; purchased R&D Systems
T2 sequence (P97821 25-134 limits assumed): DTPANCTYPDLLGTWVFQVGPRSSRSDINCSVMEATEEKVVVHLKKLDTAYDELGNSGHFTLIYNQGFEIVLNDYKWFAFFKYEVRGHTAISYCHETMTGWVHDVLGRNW
T2 sequence (P97821 231-393 limits assumed): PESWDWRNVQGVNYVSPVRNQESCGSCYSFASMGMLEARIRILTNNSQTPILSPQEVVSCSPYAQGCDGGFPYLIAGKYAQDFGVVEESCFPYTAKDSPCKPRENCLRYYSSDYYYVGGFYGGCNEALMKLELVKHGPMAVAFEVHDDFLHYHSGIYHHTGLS
T2 sequence (P97821 394-462 limits assumed): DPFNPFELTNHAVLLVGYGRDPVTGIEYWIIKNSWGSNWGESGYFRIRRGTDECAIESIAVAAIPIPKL
Experimental: Mouse DPP1 Enzyme IC50 Assay
Test articles are applied to active mouse DPP1 enzyme (R&D Systems; Minneapolis, MN) in Assay Buffer (50 mM MES pH 5.5, 50 mM NaCl, 5 mM DTT) in a total reaction volume of 125 μL. 25 μL of compound in Assay Buffer plus 5% DMSO is first added to 50 μL of active mouse DPP1 enzyme at a concentration of 62.5 pg/μL and allowed to pre-incubate for 10 minutes at 37° C. after which 50 μL of 1000 μM H-Gly-Arg-AMC substrate (Bachem; St. Torrance, CA) is added, giving final substrate concentration of 400 μM and a final DMSO concentration of 1%. Substrate cleavage is measured for 90 minutes at 37° C., with fluorescence at Excitation/Emission 350/450 nm measured every 5 minutes. DPP1 concentration is interpolated based on its activity relative to a standard curve of recombinant active mouse DPP1 enzyme. IC50 values for each compound are calculated via the XLFit (IDBS Version 5.3.1.3) Add-On to Microsoft Excel using the four parameter fit equation y=(A+((B-A)/(1+((C/x)^D)))), which appears as equation number 205 (4 Parameter Logistic Model or Sigmoidal Dose-Response Model) in XLFit. Default constraints are used for each Parameter. IC50 is defined as the compound concentration at which 50% of enzyme activity is inhibited when compared to the no-compound control.

IC50 (DPP1 [1]) [nM] | IC50 (DPP1 [2]) [nM] | IC50 (active mouse DPP1 enzyme) [nM] | SMILES
≥ 15 | – | – | Cn1c(=O)oc2ccc(C34CC(C[C@@H](C#N)NC(=O)[C@@H]5CNCCCO5)(C3)C4)cc21 [Compound 101d]
≥ 15 | – | – | Cn1c(=O)oc2ccc(-c3cc4ccc(C[C@@H](C#N)NC(=O)C5CNCCCO5)cc4s3)cc21 (stereo partly shown) [Compound 112b]
≥ 15 | ≥ 1.5 | ≥ 20 | Cn1c(=O)oc2ccc(-c3ccc4cc(C[C@@H](C#N)NC(=O)[C@@H]5CNCCCO5)sc4c3)cc21 [Compound 113b]
≥ 15 | ≥ 1.5 | ≥ 20 | Cn1c(=O)oc2ccc(-c3ccc4sc(C[C@@H](C#N)NC(=O)C5CNCCCO5)cc4c3)cc21 (stereo partly shown) [Compound 114b]
≥ 15 | ≥ 1.5 | ≥ 20 | Cn1c(=O)oc2ccc(-c3ccc4sc(C[C@@H](C#N)NC(=O)[C@@H]5CNCCCO5)c(F)c4c3)cc21 [Compound 115b]
≥ 15 | ≥ 1.5 | ≥ 20 | Cn1c(=O)oc2ccc(-c3cc4sc(CC(C#N)NC(=O)[C@@H]5CNCCCO5)cc4s3)cc21 (stereo partly drawn) [Compound 118b, (2S)—N-(1-cyano-2-(5-(3-methyl-2-oxo-2,3-dihydrobenzo[d]oxazol-5-yl)thieno[3,2-b]thiophen-2-yl)ethyl)-1,4-oxazepane-2-carboxamide]
≥ 15 | ≥ 1.5 | – | Cn1c(=O)oc2ccc(-c3ccc4cc(CC(C#N)NC(=O)[C@@H]5CNCCCO5)[nH]c4c3)cc21 (stereo partly drawn) [Compound 128b, (2S)—N-(1-cyano-2-(6-(3-methyl-2-oxo-2,3-dihydrobenzo[d]oxazol-5-yl)-1H-indol-2-yl)ethyl)-1,4-oxazepane-2-carboxamide]
≥ 15 | ≥ 1.5 | – | Cn1c(=O)oc2ccc(-c3ccc4c(F)c(C[C@@H](C#N)NC(=O)[C@@H]5CNCCCO5)sc4c3)cc21 [Compound 130b]
≥ 15 | ≥ 1.5 | – | Cn1c(=O)oc2ccc(-c3cc4cc(C[C@@H](C#N)NC(=O)C5CNCCCO5)ccc4s3)cc21 (stereo partly shown) [Compound 131b]
≥ 15 | ≥ 1.5 | – | Cn1c(=O)oc2ccc(-c3ccc4cc(CC(C#N)NC(=O)[C@@H]5CNCCCO5)ccc4c3)cc21 (stereo partly drawn) [Compound 133b, (2S)—N-{1-cyano-2-[6-(3-methyl-2-oxo-1,3-benzoxazol-5-yl)naphthalen-2-yl]ethyl}-1,4-oxazepane-2-carboxamide]
≥ 15 | ≥ 1.5 | – | Cn1c(=O)oc2ccc(-c3cc4ccc(C[C@@H](C#N)NC(=O)[C@@H]5CNCCCO5)c(F)c4s3)cc21 [Compound 134a]
≥ 15 | ≥ 1.5 | – | CCN1C(=O)Cc2ccc(-c3cc4sc(C[C@@H](C#N)NC(=O)[C@@H]5CNCCCCO5)cc4s3)cc21 [Compound 138b, (2S)—N-[(1S)-1-cyano-2-[5-(1-ethyl-2-oxo-3H-indol-6-yl)thieno[3,2-b]thiophen-2-yl]ethyl]-1,4-oxazocane-2-carboxamide]
≥ 15 | ≥ 1.5 | – | CCN1C(=O)Cc2ccc(-c3cc4sc(C[C@H](C#N)NC(=O)[C@@H]5CNCCCCO5)cc4s3)cc21 [Compound 138c, (2S)—N-[(1R)-1-cyano-2-[5-(1-ethyl-2-oxo-3H-indol-6-yl)thieno[3,2-b]thiophen-2-yl]ethyl]-1,4-oxazocane-2-carboxamide]
≥ 15 | ≥ 1.5 | – | Cn1c(=O)oc2ccc(-c3cc4sc(C[C@@H](C#N)NC(=O)[C@@H]5CNCCCCO5)cc4s3)cc21 [Compound 139b, (2S)—N-[(1S)-1-cyano-2-[5-(3-methyl-2-oxo-1,3-benzoxazol-5-yl)thieno[3,2-b]thiophen-2-yl]ethyl]-1,4-oxazocane-2-carboxamide]
≥ 15 | ≥ 1.5 | – | Cn1c(=O)oc2ccc(-c3cc4sc(C[C@H](C#N)NC(=O)[C@@H]5CNCCCCO5)cc4s3)cc21 [Compound 139c, (2S)—N-[(1R)-1-cyano-2-[5-(3-methyl-2-oxo-1,3-benzoxazol-5-yl)thieno[3,2-b]thiophen-2-yl]ethyl]-1,4-oxazocane-2-carboxamide]
5 to 15 | ≥ 1.5 | – | CO[C@@H]1CCNC[C@@H](C(=O)N[C@H](C#N)Cc2cc3sc(-c4ccc5oc(=O)n(C)c5c4)cc3s2)OC1 [Compound 142b]
